The compounds below were run against T1, SARM1 (50-724) (Homo sapiens, UniProt Q6SZW1) (assay: SARM1 (50-724) enzymatic assay (NMN-activated NAD+ hydrolysis, LC-MS/MS readout)). Conditions: purified SARM1 (50-724) 2 nM, 200 μM NMN activator, 100 μM NAD+ substrate, 1 h at room temperature, read-out: IC50 (SARM1 inhibitory activity).
T1 construct: Purified SARM1 (50-724) with a final concentration of 2 nM
T1 sequence (Q6SZW1 50-724): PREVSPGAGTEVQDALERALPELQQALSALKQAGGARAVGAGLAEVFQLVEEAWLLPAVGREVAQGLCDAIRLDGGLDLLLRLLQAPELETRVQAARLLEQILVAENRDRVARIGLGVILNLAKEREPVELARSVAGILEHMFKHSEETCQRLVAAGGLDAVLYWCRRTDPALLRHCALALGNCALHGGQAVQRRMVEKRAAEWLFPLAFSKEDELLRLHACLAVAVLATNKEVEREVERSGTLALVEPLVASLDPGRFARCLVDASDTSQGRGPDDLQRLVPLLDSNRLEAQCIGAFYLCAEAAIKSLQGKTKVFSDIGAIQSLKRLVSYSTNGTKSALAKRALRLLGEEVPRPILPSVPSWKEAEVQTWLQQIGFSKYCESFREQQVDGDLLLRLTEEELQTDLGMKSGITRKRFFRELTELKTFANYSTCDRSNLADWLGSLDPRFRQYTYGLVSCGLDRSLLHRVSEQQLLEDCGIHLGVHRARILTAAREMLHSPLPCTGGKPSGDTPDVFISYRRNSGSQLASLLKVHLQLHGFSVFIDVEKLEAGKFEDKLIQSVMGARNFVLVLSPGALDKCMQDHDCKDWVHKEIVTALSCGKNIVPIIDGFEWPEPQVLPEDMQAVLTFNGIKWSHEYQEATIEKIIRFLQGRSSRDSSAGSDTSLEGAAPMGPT
Assay type: biochemical
Outline: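 Purified human SARM1 (50-724), 2 nM final in DPBS, pre-incubated 15 min at RT with compound (1% DMSO), then started with 200 μM NMN activator and 100 μM NAD+. After 1 h at RT, quenched with 70% acetonitrile; analysed by LC-MS/MS.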

IC50	SMILES
≤ 100 nM	[2H]C([2H])([2H])N(C(=O)c1nc2cc(C(F)(F)F)ccc2[nH]1)c1cncc(Cl)c1C [Compound 166, N-(5-chloro-4-methylpyridin-3-yl)-N-(methyl-d3)-5-(trifluoromethyl)-1H-benzo[d]imidazole-2-carboxamido]
≤ 100 nM	O=C(c1nc2cc(C(F)(F)F)ccc2[nH]1)N(CCO)c1ccc(F)c(F)c1Cl [Compound 203, N-(2-chloro-3,4-difluorophenyl)-N-(2-hydroxyethyl)-5-(trifluoromethyl)-1H-benzo[d]imidazole-2-carboxamide]
101 to 500 nM	Cc1ccc2[nH]c(C(=O)N(C)C3CCCC3)c(CCO)c2c1 [Compound 36, N-cyclopentyl-3-(2-hydroxyethyl)-N,5-dimethyl-1H-indole-2-carboxamide]
101 to 500 nM	N#Cc1cc(Cl)c(Cl)c(N(CCO)C(=O)c2nc3cc(C(F)(F)F)ccc3[nH]2)c1 [Compound 109, N-(2,3-dichloro-5-cyanophenyl)-N-(2-hydroxyethyl)-5-(trifluoromethyl)-1H-benzo[d]imidazole-2-carboxamide]

The next lines start with the compound.

SMILES	IC50
Cc1cnc2[nH]c(C(=O)N(C)C3CCCC3)c(CO)c2c1 [Compound 38, N-cyclopentyl-3-(hydroxymethyl)-N,5-dimethyl-1H-pyrrolo[2,3-b]pyridine-2-carboxamide]	≥ 1000 nM
Cc1csc(-c2ccc3[nH]c(C(=O)N(CCO)c4cccc(Cl)c4Cl)nc3c2)n1 [Compound 153]	101 to 500 nM
Cc1ccc2[nH]c(C(=O)N(C)C3CCCC3)nc2n1 [Compound 52, N-cyclopentyl-N,5-dimethyl-1H-imidazo[4,5-b]pyridine-2-carboxamide]	≥ 1000 nM
O=C(c1nc2cc(C(F)(F)F)ccc2[nH]1)N(CCN1CCOCC1)c1cccc(F)c1Cl [Compound 214, N-(2-chloro-3-fluorophenyl)-N-(2-morpholinoethyl)-5-(trifluoromethyl)-1H-benzo[d]imidazole-2-carboxamide]	101 to 500 nM
Cc1ccc2[nH]c(C(=O)N(C)C3CCCC3)c(CNc3ccccn3)c2c1 [Compound 82, N-cyclopentyl-N,5-dimethyl-3-((pyridin-2-ylamino)methyl)-1H-indole-2-carboxamide]	101 to 500 nM

— patent US20260265195A1, “SARM1 MODULATORS, PREPARATIONS, AND USES THEREOF” (SIRONAX LTD, priority 2022, published 2026)
